ChEMBL document CHEMBL5120831, “Pep5-based antitumor peptides containing multifunctional fragments with enhanced activity and synergistic effect” (Eur J Med Chem, 2022)
Values belong to the substance of their own block, whether it stands above or below them. Calls of active or inactive are those of the source. The rule behind the calls is not given here. Numbered stars: 1 amine (or outer) side, 2 acyl side, 3 side chain; on linkers, the order of the positions; unused ones are H or OH. Bridge positions count the residues as written; N and C are the ends. Square brackets hold non-standard residues; d marks the D form. I, II: the chains in the order shown. X1 = O=C([C@H](Cc1c[nH]c2ccccc12)N(c1ccc([N+](=O)[O-])c2nonc12)[*:1])[*:2]

Key:
A549 [1] = test: Induction of apoptosis in human A549 cells assessed as appearance of apoptotic bodies at 15 uM measured after 24 hrs by transmission electron microscopy; type: functional, cell-based
A549 [2] = test: Induction of apoptosis in human A549 cells assessed as chromatin condensation at 15 uM measured after 24 hrs by transmission electron microscopy; type: functional, cell-based
[3] = Cytotoxicity against human BEAS-2B cells assessed as reduction in cell viability measured after 24 hrs by CCK-8 assay; type: toxicity, cell-based
BEAS-2B = test: Induction of apoptosis in human BEAS-2B cells assessed as reduction in viable cells at 15 uM measured after 24 hrs by Annexin V-FITC/propidium iodide staining based flow cytometry; type: toxicity, cell-based
A549 [4] = test: Induction of necrosis in human A549 cells assessed as releasing of large number of cell content into extracellular space at 30 uM measured after 24 hrs by transmission electron microscopy; type: functional, cell-based
HepG2 [5] = test: Cytotoxicity against human HepG2 cells assessed as reduction in cell viability measured after 24 hrs by CCK-8 assay; type: functional, cell-based; conditions: HepG2, 24 h
HepG2 [6] = test: Antitumor activity against human HepG2 cells xenografted in BALB/c nude mouse assessed as appearance of fuzzy boundary region at 25 to 50 uM, sc administered at 1 day interval for 9 days and measured on day 11 by H and E staining based histological analysis; type: functional, organism-based; conditions: dose 25-50 µM, time 11.0 day
HepG2 [7] = test: Induction of necrosis in human HepG2 cells assessed as cell membrane disruption at 30 uM measured after 24 hrs by transmission electron microscopy; type: functional, cell-based
HepG2 [8] = test: Induction of ROS generation in human HepG2 cells at 10 to 30 uM measured after 4 hrs by DCFH-DA reagent based fluorescence assay; type: functional, cell-based; conditions: dose 10-30 µM
HepG2 [9] = test: Antitumor activity against human HepG2 cells xenografted in BALB/c nude mouse assessed as induction of apoptosis at 25 to 50 uM, sc administered at 1 day interval for 9 days and measured on day 11 by TUNEL staining based assay; type: functional, organism-based; conditions: dose 25-50 µM, time 11.0 day
HepG2 [10] = test: Induction of cell membrane disruption in human HepG2 cells assessed as increase in LDH release at 15 uM measured after 1 hr by LDH releasing reagent based assay
A549 [11] = test: Cytotoxicity against human A549 cells assessed as reduction in cell viability measured after 24 hrs by CCK-8 assay; type: functional, cell-based; conditions: A549, 24 h
A549 [12] = test: Induction of cell membrane disruption in human A549 cells assessed as increase in LDH release at 15 uM measured after 1 hr by LDH releasing reagent based assay
Proteasome = test: Inhibition of proteasome activity in human A549 cells measured after 4 hrs by luciferase assay; conditions: dose 5-30 µM, DDE = dose-dependent effect
HepG2 [13] = test: Antitumor activity against human HepG2 cells xenografted in sc dosed BALB/c nude mouse assessed as tumor growth inhibition administered at 1 day interval for 9 days; type: functional, organism-based; conditions: dose 25-50 µM, time 9.0 day, DDE = dose-dependent effect
HepG2 [14] = test: Antitumor activity against human HepG2 cells xenografted in BALB/c nude mouse assessed as missing nuclei at 25 to 50 uM, sc administered at 1 day interval for 9 days and measured on day 11 by H and E staining based histological analysis; type: functional, organism-based; conditions: dose 25-50 µM, time 11.0 day
L02 = test: Induction of apoptosis in human L02 cells assessed as reduction in viable cells at 15 uM measured after 24 hrs by Annexin V-FITC/propidium iodide staining based flow cytometry; type: toxicity, cell-based; conditions: l02, 24 h
HepG2 [15] = test: Induction of necrosis in human HepG2 cells assessed as releasing of large number of cell content into extracellular space at 30 uM measured after 24 hrs by transmission electron microscopy; type: functional, cell-based
HepG2 [16] = test: Antitumor activity against human HepG2 cells xenografted in BALB/c nude mouse assessed as reduction in tumor volume at 25 to 50 uM, sc administered at 1 day interval for 9 days; type: functional, organism-based; conditions: dose 25-50 µM, time 9.0 day
HepG2 [17] = test: Induction of apoptosis in human HepG2 cells assessed as chromatin condensation at 15 uM measured after 24 hrs by transmission electron microscopy; type: functional, cell-based
A549 [18] = test: Induction of necrosis in human A549 cells assessed as cell membrane disruption at 30 uM measured after 24 hrs by transmission electron microscopy; type: functional, cell-based
HepG2 [19] = test: Induction of morphological changes in human HepG2 cells assessed as appearance of broken cell structure at 15 uM measured after 24 hrs by high-throughput microscopy; type: functional, cell-based
HepG2 [20] = test: Induction of apoptosis in human HepG2 cells assessed as swollen mitochondria at 15 uM measured after 24 hrs by transmission electron microscopy; type: functional, cell-based
HepG2 [21] = test: Induction of apoptosis in human HepG2 cells assessed as cell membrane disruption at 15 uM measured after 24 hrs by transmission electron microscopy; type: functional, cell-based
A549 [22] = test: Induction of apoptosis in human A549 cells assessed as hollow mitochondria at 15 uM measured after 24 hrs by transmission electron microscopy; type: functional, cell-based
A549 [23] = test: Induction of apoptosis in human A549 cells assessed as swollen mitochondria at 15 uM measured after 24 hrs by transmission electron microscopy; type: functional, cell-based
[24] = Cytotoxicity against human L02 cells assessed as reduction in cell viability measured after 24 hrs by CCK-8 assay; type: toxicity, cell-based
HepG2 [25] = test: Induction of apoptosis in human HepG2 cells assessed as appearance of apoptotic bodies at 15 uM measured after 24 hrs by transmission electron microscopy; type: functional, cell-based
A549 [26] = test: Induction of apoptosis in human A549 cells assessed as cell membrane disruption at 15 uM measured after 24 hrs by transmission electron microscopy; type: functional, cell-based
HepG2 [27] = test: Induction of apoptosis in human HepG2 cells assessed as hollow mitochondria at 15 uM measured after 24 hrs by transmission electron microscopy; type: functional, cell-based
[28] = Toxicity in HepG2 cell xenografted BALB/c nude mouse assessed as change in body weight at 25 to 50 uM, sc administered at 1 day interval for 9 days; type: organism-based; conditions: in vivo, 216 h, dose 25-50 µM, time 9 day
[29] = Drug uptake in human HepG2 cells at 15 uM measured after 1 hr by Hoechst 33258 staining based flow cyotmetry; type: ADME, cell-based; conditions: hepg2, 1 h
[30] = Drug uptake in human A549 cells at 15 uM measured after 1 hr by Hoechst 33258 staining based flow cyotmetry; type: ADME, cell-based; conditions: a549, 1 h
[31] = Drug uptake in human BEAS-2B cells at 15 uM measured after 1 hr by Hoechst 33258 staining based flow cyotmetry; type: ADME, cell-based
[32] = Drug uptake in human HepG2 cells at 15 uM measured after 60 to 120 mins by Hoechst 33258/Lyso-Tracker Red staining based flow cytometry; type: ADME, cell-based; conditions: hepg2, 15 µM, time 60-120 min
[33] = Drug uptake in human A549 cells at 15 uM measured after 1 hr by Hoechst 33258 staining based confocal laser scanning microscopy; type: ADME, cell-based; conditions: a549, 1 h
[34] = Drug uptake in endosome of human HepG2 cells at 15 uM measured after 30 mins by Hoechst 33258/Lyso-Tracker Red staining based flow cytometry; type: ADME; conditions: hepg2, 0.5 h
[35] = Drug uptake in cytoplasm of human HepG2 cells at 15 uM measured after 60 mins by Hoechst 33258/Lyso-Tracker Red staining based flow cytometry; type: ADME, subcellular; conditions: hepg2, 1 h
[36] = Drug uptake in human BEAS-2B cells at 15 uM measured after 1 hr by Hoechst 33258 staining based confocal laser scanning microscopy; type: ADME, cell-based
[37] = Drug uptake in human HepG2 cells at 15 uM measured after 1 hr by Hoechst 33258 staining based confocal laser scanning microscopy; type: ADME, cell-based; conditions: hepg2, 1 h
[38] = Drug uptake in human L02 cells at 15 uM measured after 1 hr by Hoechst 33258 staining based flow cyotmetry; type: ADME, cell-based; conditions: l02, 1 h
[39] = Drug uptake in human HepG2 cells membrane at 15 uM measured after 15 mins by Hoechst 33258/Lyso-Tracker Red staining based flow cytometry; type: ADME, cell membranes, Cell membrane; conditions: hepg2, 0.25 h
[40] = Drug uptake in human L02 cells at 15 uM measured after 1 hr by Hoechst 33258 staining based confocal laser scanning microscopy; type: ADME, cell-based; conditions: l02, 1 h

inhibition (Proteasome): Dde
Substance: I: H-WELVVLGKLLLHHLLHHLLHHGLRKRLRKFRNKIKEK / II: H-GLRKRLRKFRNKIKEK-NH2 (amide I:C-II:4)
Activity (A549 [1]): Active
Activity (A549 [2]): Active
IC50 at 24 h [3]: 11.2 µM
Activity (BEAS-2B): Non-Toxic
Activity (A549 [4]): Active
IC50 (HepG2 [5]): 7.77 µM
Activity (HepG2 [6]): Active
Activity (HepG2 [7]): Active
Activity (HepG2 [8]): Active
Activity (HepG2 [9]): Active
Activity (HepG2 [10]): Active
IC50 (A549 [11]): 6.41 µM
Activity (A549 [12]): Active
TGI (HepG2 [13]): Dde
Activity (HepG2 [14]): Active
Activity (L02): Non-Toxic
Activity (HepG2 [15]): Active
Activity (HepG2 [16]): Active
Activity (HepG2 [17]): Active
Activity (A549 [18]): Active
Activity (HepG2 [19]): Active
Activity (HepG2 [20]): Active
Activity (HepG2 [21]): Active
Activity (A549 [22]): Active
Activity (A549 [23]): Active
IC50 at 24 h [24]: 11.1 µM
Activity (HepG2 [25]): Active
Activity (A549 [26]): Active
Activity (HepG2 [27]): Active
Activity [28]: Non-Toxic

Drug uptake [29]: Active
Drug uptake [30]: Active
Drug uptake [31]: Active
Drug uptake [32]: Active
Drug uptake [33]: Active
Drug uptake [34]: Active
Drug uptake [35]: Active
Drug uptake [36]: Active
Drug uptake [37]: Active
Drug uptake [38]: Active
Drug uptake [39]: Active
Drug uptake [40]: Active
Substance: I: H-[X1]ELVVLGKLLLHHLLHHLLHHGLRKRLRKFRNKIKEK / II: H-GLRKRLRKFRNKIKEK-NH2 (amide I:C-II:4)
